Earlier results on four molecules are cited in patent US5527781A, “4-O-(aminoglycosyl)- or 4,6-di-O-(aminoglycosyl)-2,5-dideoxy-5,5-difluorostreptamine derivatives” (Zaidan Hojin Biseibutsu Kagaku Kenkyu Kai, priority 1990, dated 1996).

Molecules are shown by their SMILES. Entries after “also recorded” stand apart in the source; their conditions may differ.

This series concerns bacteria. The settings on record: literature / earlier filings; cited from earlier work.
As to `NC[C@H]1O[C@H](O[C@H]2[C@@H](F)[C@@H](O[C@H]3O[C@H](CO)[C@H](O)[C@H](N)[C@H]3O)[C@H](N)C[C@@H]2N)[C@H](O)[C@@H](O)[C@@H]1O` [5-deoxy-5-fluoro-5,4"-di-epi-kanamycin A], the “antibacterial activity compared with parent (e.g. kanamycin A)” value is on record as “antibacterial activities substantially as high as that of kanamycin A”.
With `NC[C@H]1O[C@H](O[C@H]2[C@H](O)[C@@H](O[C@H]3O[C@H](CO)[C@@H](O)[C@H](N)[C@H]3O)[C@H](N)C[C@@H]2N)[C@H](O)[C@@H](F)[C@@H]1O` [3'-deoxy-3'-fluorokanamycin A], the “antibacterial activity compared with parent (e.g. kanamycin A)” value was “improved antibacterial activities, as compared to those of their corresponding parent compounds”.
On to `NC[C@H]1O[C@H](O[C@H]2[C@H](O)[C@@H](O[C@H]3O[C@H](CO)[C@@H](O)[C@H](N)[C@H]3O)[C@H](N)C[C@@H]2N)[C@H](N)[C@@H](F)[C@@H]1O` [3'-deoxy-3'-fluorokanamycin B], for which the “antibacterial activity compared with parent (e.g. kanamycin A)” value is “improved antibacterial activities, as compared to those of their corresponding parent compounds; also recorded: remarkable antibacterial activities against various gram-positive and gram-negative bacteria, including the resistant bacteria”.
For the molecule `NC[C@H]1O[C@H](O[C@H]2[C@@H](F)[C@@H](O[C@H]3O[C@H](CF)[C@@H](O)[C@H](N)[C@H]3O)[C@H](N)C[C@@H]2N)[C@H](O)[C@@H](O)[C@@H]1O` [5,6"-dideoxy-5,6"-difluoro-5-epi-kanamycin A], the “antibacterial activity compared with parent (e.g. kanamycin A)” value is listed as “antibacterial activities substantially as high as that of kanamycin A”.
